Measured values: the supplement of paper PMC4862054
“And” between values parts separate entries of the source, which are not always exact repeats. Equal entries are not always repeated.

What was measured:
Details in all cases: incubation time: 72 h
HCC1937 = assay: drug sensitivity score (DSS), CellTiter-Blue viability (DSS (AUC-based score)); higher = stronger viability inhibition; extreme values may be limits of the assay
Protocol: (§1)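 DSRT with the CellTiter-Blue (resazurin reduction) viability readout, fluorescence 560/590 nm, 72 h incubation. Plates were normalised to DMSO and benzethonium chloride controls. DSS is computed from the area under the fitted dose-response curve (5 or 9 concentrations).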

MDA-MB-231 = assay: as above
Protocol: as §1

MDA-MB-468 = assay: as above
Protocol: as §1

BT-474 = assay: as above
Protocol: as §1

MFM-223 [1] = assay: as above
Protocol: as §1

MDA-MB-436 [2] = assay: as above
Protocol: as §1

HCC1143 = assay: as above
Protocol: as §1

HCC1599 [3] = assay: as above
Protocol: as §1

CAL-85-1 = assay: as above
Protocol: as §1

CAL-120 [4] = assay: as above
Protocol: as §1

BT-549 = assay: as above
Protocol: as §1

MDA-MB-453 [5] = assay: as above
Protocol: as §1

HDQ-P1 = assay: as above
Protocol: as §1

CAL-51 [6] = assay: as above
Protocol: as §1

SK-BR-3 = assay: as above
Protocol: as §1

CAL-148 = assay: as above
Protocol: as §1

DU-4475 = assay: as above
Protocol: as §1

Hs578T [7] = assay: as above
Protocol: as §1

MFM-223 [8] = assay: normalised viability (% of control), CellTiter-Blue; higher = more viable cells (about 100 = DMSO control)
Method in brief: (§2)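 Seeded at 20 µl suspension per well onto compound-loaded 384-well plates, breast cancer cell lines were incubated 72 h. CellTiter-Blue fluorescence at 560/590 nm was then read, with each plate normalised to vehicle (100) and a positive kill control (0). Normalised viability is reported at a single listed concentration of the series.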

MDA-MB-436 [9] = assay: as above
Method in brief: as §2

HCC1599 [10] = assay: as above
Method in brief: as §2

CAL-120 [11] = assay: as above
Method in brief: as §2

MDA-MB-453 [12] = assay: as above
Method in brief: as §2

CAL-51 [13] = assay: as above
Method in brief: as §2

Hs578T [14] = assay: as above
Method in brief: as §2

SMILES | drug sensitivity score (HCC1937) | drug sensitivity score (MDA-MB-231) | drug sensitivity score (MDA-MB-468) | drug sensitivity score (BT-474) | drug sensitivity score (MFM-223 [1]) | drug sensitivity score (MDA-MB-436 [2]) | drug sensitivity score (HCC1143) | drug sensitivity score (HCC1599 [3]) | drug sensitivity score (CAL-85-1) | drug sensitivity score (CAL-120 [4]) | drug sensitivity score (BT-549) | drug sensitivity score (MDA-MB-453 [5]) | drug sensitivity score (HDQ-P1) | drug sensitivity score (CAL-51 [6]) | drug sensitivity score (SK-BR-3) | drug sensitivity score (CAL-148) | drug sensitivity score (DU-4475) | drug sensitivity score (Hs578T [7]) | normalised viability (MFM-223 [8]; 10 nM) | normalised viability (MFM-223 [8]; 1000 nM) | normalised viability (MFM-223 [8]; 10000 nM) | normalised viability (MDA-MB-436 [9]; 10 nM) | normalised viability (MDA-MB-436 [9]; 1000 nM) | normalised viability (MDA-MB-436 [9]; 10000 nM) | normalised viability (HCC1599 [10]; 10 nM) | normalised viability (HCC1599 [10]; 1000 nM) [%] | normalised viability (HCC1599 [10]; 10000 nM) [%] | normalised viability (CAL-120 [11]; 10 nM) | normalised viability (CAL-120 [11]; 1000 nM) | normalised viability (CAL-120 [11]; 10000 nM) | normalised viability (MDA-MB-453 [12]; 3 nM) | normalised viability (MDA-MB-453 [12]; 30 nM) | normalised viability (MDA-MB-453 [12]; 100 nM) | normalised viability (CAL-51 [13]; 3 nM) | normalised viability (CAL-51 [13]; 30 nM) | normalised viability (CAL-51 [13]; 100 nM) | normalised viability (Hs578T [14]; 10 nM) | normalised viability (Hs578T [14]; 1000 nM) | normalised viability (Hs578T [14]; 10000 nM)
CC(C)C[C@H](NC(=O)[C@@H](COC(C)(C)C)NC(=O)[C@H](Cc1ccc(O)cc1)NC(=O)[C@H](CO)NC(=O)[C@H](Cc1c[nH]c2ccccc12)NC(=O)[C@H](Cc1cnc[nH]1)NC(=O)[C@@H]1CCC(=O)N1)C(=O)N[C@@H](CCCNC(=N)N)C(=O)N1CCC[C@H]1C(=O)NNC(N)=O [Goserelin] | 0 | 0 | 0 | 0 | 0 | 0 | 0 | 0 | 0 | 0 | 0 | 0 | 0 | 0 | 0 | 0 | 0 | 0 | 92.1% | 87.8% | 100% | 95.6% | 97.3% | 94% | 107% | 83.8 | 90.2 | 96.4% | 93.1% | 94.4% | 115% | 101% | 102% | 107% | 104% | 105% | 105% | 98% | 104%
Cn1cc(C2=C(c3cn(C4CCN(Cc5ccccn5)CC4)c4ccccc34)C(=O)NC2=O)c2ccccc21 [Enzastaurin] | 5.39 | 0 | 0 | 2.68 | 6.5 | 9.96 | 5.14 | 0 | 0 | 0 | 6.55 | 7.69 | 1.6 | 0 | 10.1 | 5.06 | 0 | 9.93 | 90% | 65.1% | 55.9% | 127% | 56.1% | 57.8% | 101% | 93.2 | 82.4 | 89.6% | 95% | 65.9% | 107% | 93.7% | 87.8% | 117% | 111% | 107% | 91.2% | 68% | 32.6%
CC(C)(C)NC(=O)[C@H]1CC[C@H]2[C@@H]3CC[C@H]4NC(=O)C=C[C@]4(C)[C@H]3CC[C@]12C [Finasteride] | 0 | 0 | 0 | 0 | 1.79 | 0 | 0 | 0 | 0 | 0 | 0 | 1.81 | 0 | 1.63 | 0 | 1.45 | 3.01 | 0 | 106% | 97.7% | 41.8% | 91% | 97.8% | 96.3% | 97.1% | 114 | 83.4 | 108% | 108% | 116% | 117% | 98.2% | 112% | 112% | 108% | 103% | 64.2% | 108% | 117%
Cc1cn(-c2cc(NC(=O)c3ccc(C)c(Nc4nccc(-c5cccnc5)n4)c3)cc(C(F)(F)F)c2)cn1 [Nilotinib] | 6.24 and 6.45 | 4.55 and 5.18 | 0 | 0 | 0 | 0 | 0 | 0 | 0 | 0 | 6.16 and 6.02 | 0 | 0 | 0 | 0 | 0 | 0 | 0 | 92.3% and 91.1% | 98.9% and 91% | 91.7% and 89.4% | 98.2% and 88.3% | 75.7% and 76.8% | 92.5% and 75.2% | 93.3% and 95.8% |  |  | 78% and 85.4% | 82.5% and 88% | 90.2% and 92.4% | 111% and 103% | 95.6% and 90% | 91.7% and 103% | 107% and 112% | 108% and 106% | 101% and 111% | 97.3% and 112% | 89% and 84.7% | 106% and 91%
